Like-named read-outs stand apart in the source and are kept apart here.

One assay deals with plasma free fatty acids. As to the kind of experiment: Effects on plasma free fatty acid levels in rats. Type of assay: in vivo, rat. The conditions noted are these: for ED50: Rattus norvegicus, 50 min, read-out: Rat Free Fatty Acid: ED50. As to the method:
Rats respond to a single oral dose of β3 agonists by increasing plasma free fatty acids (FFA) in response to β3 receptor stimulation on the plasma membrane of the fat cell. 5-{2-[2-(3-Chloro-phenyl)-2-hydroxy-ethylamino]-propyl}-benzo[1,3]dioxole- 2,2-dicarboxylic acid diisopropyl ester (Standard 2) was used as a standard compound. All test compounds were dosed at 0.1 mg/kg and compared to the response by Standard 2.
1). Drugs were dissolved in DMSO at 10 mg/ml.
2). Twenty μl of the DMSO-drug solution was added to 10 mL methyl cellulose:tween-80 (0.5%:0.1%) for a final concentration of 20 μg/mL.
3). Methyl cellulose:tween-80 drug suspension was given via gavage (1 mL/200 g body weight; or 0.1 mg/kg) to rats and blood was collected 50 min later.
4). Plasma was analyzed for free fatty acids using a kit supplied by Biochemical Diagnostics Inc. (Brentwood, N.Y.).
5). Drug response was calculated from the formula below. [formula]
^b Elevation of plasma free fatty acids in rats, compounds tested at
0.1 mg/kg, results expressed as % of
5{2[2(3-Chloro-phenyl)-2-hydroxy-ethylaminopropylbenzo[1,3dioxole-2,2-dic
rboxylic acid diisopropyl ester response (78% increase) at 0.1 mg/kg.
ED50 (mg/kg) values determined for selected compounds.

For assay [1], the target named is human β2 adrenergic receptor (Homo sapiens, UniProt P07550). As to the kind of experiment: cell-based. Particulars: for activation at 0.01 µM: 10 min, read-out: β2: % of isoproterenol activity (increase in cAMP). Summed up: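 CHO cells transfected with human β1 or β2 adrenergic receptors were grown to confluence and exposed to compound at 10 nM for 10 min at 37° C. Cellular cAMP was measured by scintillation proximity assay. Activity is expressed as % of the response to 10 μM isoproterenol; EC50 (μM) was determined for selected compounds.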

The target of assay [2] is human β1 adrenergic receptor (Homo sapiens, UniProt P08588). As to the kind of experiment: Human β1 adrenergic receptor agonist activity, cAMP increase in transfected CHO cells. Type of assay: cell-based. The method, then:
The activity of the test compounds on human β-adrenergic receptors was determined with Chinese hamster ovary (CHO) cells transfected with human β2, or β1 adrenergic receptors. Agonist activity is indicated by increased cAMP levels in the CHO cells. Selectivity of the test compounds for the β3 receptor was assessed by comparison with results in β2 and β1 adrenergic receptor transfected cells.
1). Chinese hamster ovary (CHO) cells transfected with human β2, or β1 adrenergic receptors were used in the assay.
2). Cells were grown to confluent conditions in 24 well plates.
3). Drugs were dissolved in DMSO at a concentration of 10 μM.
4). Cells were incubated with drug at 10 nM concentration for 10 min at 37° C.
5). Cell cAMP concentrations were assayed using a scintillation proximity assay kit from Amersham Corp., Chicago, Ill.
6). Activities for the test compounds are expressed as a percentage of the isoproterenol response.
Production of the CHO cells transfected with human β2, or β1 adrenergic receptors, and compound test procedures utilizing the CHO cells, are described by Emorine et al. in their article "Molecular Characterization of the Human Beta3 -Adrenergic Receptor", Science 1989, 245(8), 1118-1121 and by Muzzin et al. in the article "An Adipose Tissue-Specific Beta3 -Adrenergic Receptor", J. Biol. Chem.1991, 266, 24053-24058.
^a Human β receptors expressed in Chinese hamster ovary cells,
compounds tested at 10 nM, results expressed as % of isoproterenol
activity (increase in cAMP) at 10 μM. EC50 (μM) values
determined for selected compounds.

The subject of the next assay is plasma glucose. As to the kind of experiment: Effects on hyperglycemia in db/db mice, plasma glucose. Format: in vivo, mouse (male, db/db (C57BL/KsJ)). Particulars: Mus musculus, po, 96 h; p.o., 4 days, mean of 2 and 4 h values on Day 4; footnote c gives mg/kg/day; read-out: db/db Mice Plasma Glucose: ED50 for lowering of plasma glucose.
Setting [3] is: elevation of plasma free fatty acids, oral gavage, selected compounds.
Setting [4] is: cAMP in CHO cells, selected compounds, read-out: β2: EC50.
Setting [5] is: compounds tested at 10 nM, isoproterenol at 10 μM, CHO cells, 10 min at 37° C.
The mark [6] stands for this setting: cAMP in CHO cells, selected compounds, read-out: β1: EC50.

Sequence of human β1 adrenergic receptor (P08588 whole entry): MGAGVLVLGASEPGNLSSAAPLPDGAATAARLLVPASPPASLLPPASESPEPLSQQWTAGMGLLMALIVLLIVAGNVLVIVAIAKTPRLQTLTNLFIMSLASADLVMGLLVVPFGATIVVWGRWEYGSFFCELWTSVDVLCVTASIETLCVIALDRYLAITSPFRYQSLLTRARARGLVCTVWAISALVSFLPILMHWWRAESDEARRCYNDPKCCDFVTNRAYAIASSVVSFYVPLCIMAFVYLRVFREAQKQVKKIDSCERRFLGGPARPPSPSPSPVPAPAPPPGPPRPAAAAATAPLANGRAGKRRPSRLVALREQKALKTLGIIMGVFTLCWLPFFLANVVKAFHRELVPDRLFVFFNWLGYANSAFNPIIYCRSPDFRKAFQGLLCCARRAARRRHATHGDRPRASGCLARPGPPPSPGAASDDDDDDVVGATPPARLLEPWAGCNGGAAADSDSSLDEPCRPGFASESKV

Turning to `CC(Cc1ccc2c(c1)OC(C(=O)OC(C)c1ccccc1)(C(=O)OC(C)c1ccccc1)O2)NCC(O)c1cccc(Cl)c1` (centres unmarked) [Example 16, 5-{2-[2-(3-Chloro-phenyl)-2-hydroxy-ethylamino]-propyl}-benzo[1,3]dioxole-2,2-dicarboxylic acid bis-(1-phenyl-ethyl) ester], in the assay with plasma free fatty acids (setting [3]), the ED50 is 0.128 mg/kg.

In general, EC50 refers to the concentration at which the effect is half-maximal. Take `CC(Cc1ccc2c(c1)OC(C(=O)OCC1CC1)(C(=O)OCC1CC1)O2)NCC(O)c1cccc(Cl)c1` (centres unmarked) [Example 38, 5-{2-[2-(3-Chloro-phenyl)-2-hydroxy-ethylamino]-propyl}-benzo[1,3]dioxole-2,2-dicarboxylic acid bis-cyclopropylmethyl ester]: the ED50 with plasma free fatty acids (setting [3]) came to 0.086 mg/kg. The EC50 in assay [1] (setting [4]) is 274 nM.

Regarding `CC(Cc1ccc2c(c1)OC(C(=O)OCCc1ccsc1)(C(=O)OCCc1ccsc1)O2)NCC(O)c1cccc(Cl)c1` (centres unmarked) [Example 71, 5-{2-[2-(3-Chloro-phenyl)-2-hydroxy-ethylamino]-propyl}-benzo[1,3]dioxole-2,2-dicarboxylic acid bis 2-(3-Thienyl)ethyl-ester], in the assay on plasma free fatty acids (setting [3]), the ED50 amounted to 0.076 mg/kg. The activation at 0.01 µM in assay [1] (setting [5]) stood at 14%.

With “Carbonic acid 3-chloro-benzyl ester 2-(3-chloro-benzyloxycarbonyloxy)-4-{2-[2-(3-chloro-phenyl)-2-hydroxy-ethylamino]-propyl}-phenyl ester [Example 15]”, the “Rat Free Fatty Acid: elevation of plasma free fatty acids, % of diisopropyl ester (Standard 2) response” value with plasma free fatty acids (0.1 mg/kg, gavage, blood collected 50 min later) turned out to be 46%. Further, the “β2: % of isoproterenol activity (increase in cAMP)” value in assay [1] (setting [5]) is recorded as 18%.

As for `CC(Cc1ccc2c(c1)OC(C(=O)O)(C(=O)OCC1CCC1)O2)NCC(O)c1cccc(Cl)c1` (centres unmarked) [Example 70, 5-{2-[2-(3-Chloro-phenyl)-2-hydroxy-ethylamino]-propyl}-benzo[1,3]dioxole-2,2-dicarboxylic acid cyclobutylmethyl ester], the half-maximal effective concentration (EC50) in assay [2] amounted to 3000 nM; in assay [1] it was 48 nM.

As for `CC(C)CCOC(=O)C1(C(=O)O)Oc2ccc(C[C@@H](C)NC[C@H](O)c3cccc(Cl)c3)cc2O1` (stereo partly drawn) [Example 76, 5-{(2R)-2-[(2R)-2-(3-Chloro-phenyl)-2-hydroxy-ethylamino]-propyl}-benzo[1,3]dioxole-2,2-dicarboxylic acid (3-methylbutyl)ester], the concentration for a half-maximal effect (EC50) in assay [2] amounted to 980 nM; in assay [1], 74 nM.

For the compound `CC(Cc1ccc2c(c1)OC(C(=O)OCC[Si](C)(C)C)(C(=O)OCC[Si](C)(C)C)O2)NCC(O)c1cccc(Cl)c1` (centres unmarked) [Example 31, 5-{2-[2-(3-Chloro-phenyl)-2-hydroxy-ethylamino]-propyl}-benzo[1,3]dioxole-2,2-dicarboxylic acid bis-(2-trimethylsilanyl-ethyl) ester], in the assay on plasma free fatty acids (po), the ED50 turned out to be 0.09 mg/kg. Moreover, the activation at 0.01 µM in assay [1] (CHO) worked out at 5%.

Consider `CC(Cc1ccc2c(c1)OC(C(=O)OCCOC(C)C)(C(=O)OCCOC(C)C)O2)NCC(O)c1cccc(Cl)c1` (centres unmarked) [Example 21, 5-{2-[2-(3-Chloro-phenyl)-2-hydroxy-ethylamino]-propyl}-benzo[1,3]dioxole-2,2-dicarboxylic acid bis-(2-isopropoxy-ethyl) ester], for which the ED50 with plasma free fatty acids (setting [3]) worked out at 0.086 mg/kg. Also, the activation at 0.01 µM in assay [1] (setting [5]) was determined as 2%.

`CC(Cc1ccc2c(c1)OC(C(=O)OC(C)C)(C(=O)OC(C)C)O2)NCC(O)c1cccc(Cl)c1` (centres unmarked) [5-{2-[2-(3-Chloro-phenyl)-2-hydroxy-ethylamino]-propyl}-benzo[1,3]dioxole-2,2-dicarboxylic acid diisopropyl ester, reference compound]: the “increase of plasma free fatty acids” value in the assay with plasma free fatty acids (0.1 mg/kg, rats) was 78%.

For the compound `CC(Cc1ccc2c(c1)OC(C(=O)OCCc1ccccc1)(C(=O)OCCc1ccccc1)O2)NCC(O)c1cccc(Cl)c1.Cl` (centres unmarked) [Example 2, 5-{2-[2-(3-Chloro-phenyl)-2-hydroxy-ethylamino]-propyl}-benzo[1,3]dioxole-2,2-dicarboxylic acid diphenethyl ester hydrochloride salt], the values for the ED50 in the assay on plasma free fatty acids (setting [3]) and in the assay with plasma glucose were 0.071 mg/kg and 0.128 mg/kg, respectively. Besides, the EC50 in assay [1] (setting [4]) worked out at 22 nM.

As to `C[C@H](Cc1ccc2c(c1)OC(C(=O)O)(C(=O)OCCC(C)(C)C)O2)NC[C@H](O)c1cccc(Cl)c1` (stereo partly drawn) [Example 81, 5-{(2R)-2-[(2R)-2-(3-Chloro-phenyl)-2-hydroxy-ethylamino]-propyl}-benzo[1,3]dioxole-2,2-dicarboxylic acid (3,3-dimethylbutyl) ester], the figures for the EC50 in assay [2] (setting [6]) and in assay [1] (setting [4]) were 380 nM and 59 nM, respectively.

Turning to `C[C@H](Cc1ccc2c(c1)OC(C(=O)O)(C(=O)OCC(C)(C)C)O2)NC[C@H](O)c1cccc(Cl)c1` (stereo partly drawn) [Example 80, 5-{(2R)-2-[(2R)-2-(3-Chloro-phenyl)-2-hydroxy-ethylamino]-propyl}-benzo[1,3]dioxole-2,2-dicarboxylic acid (2,2-dimethyl-propyl)ester], the EC50 in assay [2] is 2400 nM; in assay [1], 55 nM.

For `CCOC(=O)C(C)OC(=O)C1(C(=O)OC(C)C(=O)OCC)Oc2ccc(CC(C)NCC(O)c3cccc(Cl)c3)cc2O1` (centres unmarked) [Example 29, 5-{2-[2-(3-Chloro-phenyl)-2-hydroxy-ethylamino]-propyl}-benzo[1,3]dioxole-2,2-dicarboxylic acid bis-(1-ethoxycarbonyl-ethyl) ester], in assay [1] (setting [5]), the activation at 0.01 µM came out at 2%.

As to `CC(=O)OCOC(=O)C1(C(=O)OCOC(C)=O)Oc2ccc(CC(C)NCC(O)c3cccc(Cl)c3)cc2O1` (centres unmarked) [Example 42, 5-{2-[2-(3-Chloro-phenyl)-2-hydroxyethylamino]propyl}benzo[1,3] dioxole-2,2-dicarboxylic acid bis-acetoxymethyl ester], in assay [1] (setting [5]), the activation at 0.01 µM is 0%.

As to `CCC(=O)OCOC(=O)C1(C(=O)OCOC(=O)CC)Oc2ccc(CC(C)NCC(O)c3cccc(Cl)c3)cc2O1` (centres unmarked) [Example 43, 5-{2-[2-(3-Chloro-phenyl)-2-hydroxyethylamino]propyl}benzo[1,3] dioxole-2,2-dicarboxylic acid bis-propionyloxymethyl ester], the activation at 0.01 µM in assay [1] (setting [5]) was 0%.

Take `CC(Cc1ccc2c(c1)OC(C(N)=O)(C(N)=O)O2)NCC(O)c1cccc(Cl)c1` (centres unmarked) [Example 60, 5-{2-[2-(3-Chloro-phenyl)-2-hydroxy-ethylamino]-propyl}benzo[1,3]dioxole-2,2-dicarboxylic acid bis-amide]: the activation at 0.01 µM in assay [1] (CHO) worked out at 3%.

Take `C=CCOC(=O)C1(C(=O)OCC=C)Oc2ccc(C[C@@H](C)NC[C@H](O)c3cccc(Cl)c3)cc2O1` [Example 98, 5-{(2R)-2-[(2R)-2-(3-Chloro-phenyl)-2-hydroxy-ethylamino]-propyl}-benzo[1,3]dioxole-2,2-dicarboxylic acid diallyl ester]: the activation at 0.01 µM in assay [1] (setting [5]) is 7%.

For `CC(Cc1ccc2c(c1)OC(C(=O)OC[Si](C)(C)C)(C(=O)OC[Si](C)(C)C)O2)NCC(O)c1cccc(Cl)c1` (centres unmarked) [Example 30, 5-{2-[2-(3-Chloro-phenyl)-2-hydroxy-ethylamino]-propyl}-benzo[1,3]dioxole-2,2-dicarboxylic acid bis-trimethylsilanylmethyl ester], the activation at 0.01 µM in assay [1] (CHO) came to 0%.

In the case of `CC(Cc1ccc2c(c1)OC(C(=O)OCC1CCC1)(C(=O)OCC1CCC1)O2)NCC(O)c1cccc(Cl)c1` (centres unmarked) [Example 40, 5-{2-[2-(3-Chloro-phenyl)-2-hydroxy-ethylamino]-propyl}-benzo[1,3]dioxole-2,2-dicarboxylic acid bis-cyclobutylmethyl ester], the results for the half-maximal effective concentration (EC50) in assay [2] (setting [6]) and in assay [1] (setting [4]) were 8400 nM and 420 nM, respectively. In addition, in the assay on plasma free fatty acids (setting [3]), the ED50 was 0.071 mg/kg.

Source of the values: patent publication US5914339A, “Substituted 1,3-benzodioxoles” (American Home Products Corporation, priority 1997, dated 1999).
